Measurements reported in PubChem BioAssay AID2060888 (Molecular Pharmacology Branch, DTP, NCI, 2025).

Test system: 695427-040-R-J1-PDC complex spheroid viability
Assay: Anticancer human tumor 695427-040-R-J1-PDC patient-derived colon adenocarcinoma cell line growth inhibition [RAS]
Conditions: for IC50: curve of first compound; for viability, T/C: stronger effect = lower value
From the text: RAS pathway inhibitors in Combinations in Complex Spheroids
A high-throughput screen of multi-cell type tumor spheroids was designed to identify active combinations of RAS pathway inhibitors and targeted small molecules. Complex spheroids include a stromal component modeled by human endothelial cells (HUVEC) and fibroblasts modeled by human mesenchymal stem cells (MSCs). The concentration ranges selected for each drug and investigational agent were based upon clinically achievable concentrations if the clinical Cmax of the agent was known.
Compounds. The drugs and investigational agents: abemaciclib (NSC768073), cobimetinib (NSC768068), divarasib (GDC6063, NSC841802), docetaxel (NSC628503), GDC-1971 (RLY-1971, NSC841576), gemcitabine (NSC613327), inavolisib (NSC800729), ipatasertib (NSC767898), KB-0742 (NSC834161), MRTX-1133 (NSC836407), osimertinib (NSC779217), RMC-4630 (NSC839698), RMC-6236 (NSC851965), RMC-6291 (NSC852671), Ro-3306 (NSC812927), sapanisertib (NSC764658), SN-38 (NSC673596), staurosporine (NSC755774), SY5609 (NSC837396), and tovorafenib (DAY101, NSC766906), were obtained from the National Cancer Institute (NCI) Developmental Therapeutics Program Chemical Repository. The FDA-approved anticancer drug set is available from the NCI Developmental Therapeutics Program. […] The stock solutions were prepared in dimethyl sulfoxide (DMSO, Sigma-Aldrich, St. Louis, MO, cat. D2650) at 800-fold the tested concentration and stored at -70 degrees C prior to their use. All drugs and investigational agents were tested over a range starting from a high concentration at or near the clinical Cmax and decreasing in half-log increments. If the clinical Cmax for an agent had not been determined, the highest concentration tested was 10 microM.
Cell Culture. All cells were maintained in an incubator at 37 degrees C and 5% CO2 with 95% humidity. The PDC lines were cultured according to standard operating procedures established by the NCI PDMR. All PDCs were thawed and cultured in Matrigel-coated flasks prepared with a working solution of 1X Ham's F-12 nutrient mix, without supplementation (Invitrogen, Waltham, MA, cat. 11765054), 100 U/mL penicillin-streptomycin (Invitrogen, cat. 15140122), and 2.5% Matrigel (Corning Inc., Corning, NY, cat. 354248) for the first three passages. The 362531-283-R-J2-PDC and 782815-120-R-J1-PDC lines were cultured in 6C/Colon 1B media, which includes advanced DMEM/F-12 (Thermo Fisher Scientific, cat. 12634028), 10 mM HEPES (Thermo Fisher Scientific, cat. 15630080), 1X GlutaMAX supplement (Thermo Fisher Scientific, cat. 35050061), 0.1 mg/mL primocin (InvivoGen, San Diego, CA, cat. ant-pm-2), 10% defined fetal bovine serum, heat inactivated (HyClone Laboratories Inc., Logan, UT, cat. SH30070.03HI), 50% L-WRN conditioned media (ATCC, cat. CRL-3276), 1.25 mM N-Acetyl-L-cysteine (Sigma-Aldrich, cat. A9165), 10 mM nicotinamide (Sigma-Aldrich, cat. N0636), 1X B-27 supplement (Thermo Fisher Scientific, cat. 17504044), 1X N-2 supplement (Thermo Fisher Scientific, cat. 17502048), 50 ng/mL human EGF (Thermo Fisher Scientific, cat. PHG0311), and 10 microM Y-27632 dihydrochloride (Tocris Bioscience, cat. 1254). The K12877-001-R-J1-PDC line was cultured in 6I media, which includes all 6C/Colon 1B media plus 10 ng/mL human FGF-10 (PeproTech, cat. 100-26), 1 ng/mL human FGF-2 (PeproTech, cat. 100-18B), 1 µM prostaglandin E2 (Tocris Bioscience, cat. 2296), […] hydrocortisone (Sigma-Aldrich, cat. H4001), and […] bovine insulin (Sigma-Aldrich, cat. I6634). The K86415-001-R-J1-PDC line was cultured in 6D media, which includes all 6C/Colon 1B media components minus the L-WRN conditioned media. The 485176-168-R4-J1-PDC was cultured in PANC media, which includes all 6C/Colon 1B media plus 100 ng/mL human FGF-10 (PeproTech, cat. 100-26), 500 nM SB-431542 (Selleckchem, cat. S1067), and 10 nM gastrin (Tocris Bioscience, cat. 3006). […]

[1] = second compound 0.0316 µM, first compound 0.0316 µM
[2] = second compound 0.0316 µM, first compound 0.1 µM
[3] = second compound 0.1 µM, first compound 0.0316 µM
[4] = second compound 0.1 µM, first compound 0.1 µM
[5] = second compound 0.316 µM, first compound 0.0316 µM
[6] = second compound 0.316 µM, first compound 0.1 µM
[7] = second compound 1 µM, first compound 0.0316 µM
[8] = second compound 1 µM, first compound 0.1 µM
[9] = second compound 3.16 µM, first compound 0.0316 µM
[10] = second compound 3.16 µM, first compound 0.1 µM
[11] = second compound 10 µM, first compound 0.0316 µM
[12] = second compound 10 µM, first compound 0.1 µM
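Further: viability read after seven days of drug exposure.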
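Wherever viability, T/C is given: 100% = DMSO vehicle control viability.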

`CC(C)NCC(C(=O)N1CCN(c2ncnc3c2C(C)CC3O)CC1)c1ccc(Cl)cc1` (centres undefined) + C#Cc1c(F)ccc2cc(O)cc(-c3ncc4c(N5CC6CCC(C5)N6)nc(OCC56CCCN5CC(F)C6)nc4c3F)c12 gave an IC50 (second compound 0.0316 µM) of over 10000 nM, an IC50 (second compound 0.1 µM) of over 10000 nM and an IC50 (second compound 0.316 µM) of over 10000 nM. The IC50 (second compound 1 µM) was over 10000 nM, the IC50 (second compound 3.16 µM) was 773 nM and the IC50 (second compound 10 µM) was under 31.6 nM. For the same compound, the viability, T/C [1] was 111%, the viability, T/C [2] was 92.8% and the viability, T/C (second compound 0.0316 µM, first compound 0.316 µM) was 89.6%. It also gave a viability, T/C (second compound 0.0316 µM, first compound 1 µM) of 84%, a viability, T/C (second compound 0.0316 µM, first compound 3.16 µM) of 89.6% and a viability, T/C (second compound 0.0316 µM, first compound 10 µM) of 103%. For the same compound, the viability, T/C [3] was 92.6%, the viability, T/C [4] was 78.7% and the viability, T/C (second compound 0.1 µM, first compound 0.316 µM) was 83.7%. The viability, T/C (second compound 0.1 µM, first compound 1 µM) was 71%, the viability, T/C (second compound 0.1 µM, first compound 3.16 µM) was 94.8% and the viability, T/C (second compound 0.1 µM, first compound 10 µM) was 92.3%. The viability, T/C [5] was 83.7%, the viability, T/C [6] was 85.8% and the viability, T/C (second compound 0.316 µM, first compound 0.316 µM) was 82.7%. The viability, T/C (second compound 0.316 µM, first compound 1 µM) was 73.3%, the viability, T/C (second compound 0.316 µM, first compound 3.16 µM) was 76.6% and the viability, T/C (second compound 0.316 µM, first compound 10 µM) was 82.2%. The viability, T/C [7] was 66.2%, the viability, T/C [8] was 60.2% and the viability, T/C (second compound 1 µM, first compound 0.316 µM) was 60.3%. It also gave a viability, T/C (second compound 1 µM, first compound 1 µM) of 60.9%, a viability, T/C (second compound 1 µM, first compound 3.16 µM) of 67.2% and a viability, T/C (second compound 1 µM, first compound 10 µM) of 60.3%. The viability, T/C [9] was 59.6%, the viability, T/C [10] was 65.5% and the viability, T/C (second compound 3.16 µM, first compound 0.316 µM) was 48.7%. It also gave a viability, T/C (second compound 3.16 µM, first compound 1 µM) of 46.3%, a viability, T/C (second compound 3.16 µM, first compound 3.16 µM) of 48.5% and a viability, T/C (second compound 3.16 µM, first compound 10 µM) of 39.2%. The viability, T/C [11] was 33.6%, the viability, T/C [12] was 44.1% and the viability, T/C (second compound 10 µM, first compound 0.316 µM) was 34.4%. For the same compound, the viability, T/C (second compound 10 µM, first compound 1 µM) was 32.3%, the viability, T/C (second compound 10 µM, first compound 3.16 µM) was 26.1% and the viability, T/C (second compound 10 µM, first compound 10 µM) was 18.7%.

`CC(C)n1nc(-c2ccc3oc(N)nc3c2)c2c(N)ncnc21` + C#Cc1c(F)ccc2cc(O)cc(-c3ncc4c(N5CC6CCC(C5)N6)nc(OCC56CCCN5CC(F)C6)nc4c3F)c12 gave an IC50 (second compound 0.0316 µM) of over 100 nM, an IC50 (second compound 0.1 µM) of over 100 nM and an IC50 (second compound 0.316 µM) of over 100 nM. For the same compound, the IC50 (second compound 1 µM) was 22.5 nM, the IC50 (second compound 3.16 µM) was 2.77 nM and the IC50 (second compound 10 µM) was under 0.316 nM. For the same compound, the viability, T/C (second compound 0.0316 µM, first compound 0.000316 µM) was 105%, the viability, T/C (second compound 0.0316 µM, first compound 0.001 µM) was 95.1% and the viability, T/C (second compound 0.0316 µM, first compound 0.00316 µM) was 88.5%. For the same compound, the viability, T/C (second compound 0.0316 µM, first compound 0.01 µM) was 75.7%, the viability, T/C [1] was 70.3% and the viability, T/C [2] was 62.6%. The viability, T/C (second compound 0.1 µM, first compound 0.000316 µM) was 93.9%, the viability, T/C (second compound 0.1 µM, first compound 0.001 µM) was 89.4% and the viability, T/C (second compound 0.1 µM, first compound 0.00316 µM) was 90%. It also gave a viability, T/C (second compound 0.1 µM, first compound 0.01 µM) of 74.9%, a viability, T/C [3] of 74.7% and a viability, T/C [4] of 55.9%. For the same compound, the viability, T/C (second compound 0.316 µM, first compound 0.000316 µM) was 91.9%, the viability, T/C (second compound 0.316 µM, first compound 0.001 µM) was 80.9% and the viability, T/C (second compound 0.316 µM, first compound 0.00316 µM) was 78.6%. For the same compound, the viability, T/C (second compound 0.316 µM, first compound 0.01 µM) was 68.8%, the viability, T/C [5] was 61.5% and the viability, T/C [6] was 50.5%. It also gave a viability, T/C (second compound 1 µM, first compound 0.000316 µM) of 69.5%, a viability, T/C (second compound 1 µM, first compound 0.001 µM) of 64.3% and a viability, T/C (second compound 1 µM, first compound 0.00316 µM) of 63%. The viability, T/C (second compound 1 µM, first compound 0.01 µM) was 52.4%, the viability, T/C [7] was 47.8% and the viability, T/C [8] was 42.1%. The viability, T/C (second compound 3.16 µM, first compound 0.000316 µM) was 51.1%, the viability, T/C (second compound 3.16 µM, first compound 0.001 µM) was 58.7% and the viability, T/C (second compound 3.16 µM, first compound 0.00316 µM) was 47.4%. For the same compound, the viability, T/C (second compound 3.16 µM, first compound 0.01 µM) was 42.1%, the viability, T/C [9] was 35.4% and the viability, T/C [10] was 26.7%. For the same compound, the viability, T/C (second compound 10 µM, first compound 0.000316 µM) was 41.5%, the viability, T/C (second compound 10 µM, first compound 0.001 µM) was 33.5% and the viability, T/C (second compound 10 µM, first compound 0.00316 µM) was 35%. The viability, T/C (second compound 10 µM, first compound 0.01 µM) was 27%, the viability, T/C [11] was 25% and the viability, T/C [12] was 14.5%.
